One test concerns Erysiphe graminis. The test is described as follows: Foliar fungal disease test on Erysiphe graminis, plants inoculated 24 hours before treatment (Table V). It is filed as in vivo. The arrangement: key: 4: no disease; 3: trace −5% of disease on untreated plants; 6-25% of disease on untreated plants; 1: 26-59% of disease on untreated plants; 60-100% of disease on untreated plants. As to conditions: plants inoculated 24 hours before treatment.

Test [1] deals with foliar fungal diseases of plants. It is filed as in vivo. On the set-up: key to disease control grading, […] (VINE): 4: no disease; 3: trace −5% of disease on untreated plants; key to disease control grading, PUCCINIA RECONDITA (WHEAT) / disease control grading, VENTURIA INAEQUALIS (APPLE) / disease control grading, CERCOSPORA ARACHIDICOLA (PEANUT) / disease control grading, PH[…] (TOMATO) / disease control grading, P[…] (RICE): 4: no disease; 3: trace −5% of disease on untreated plants; 6-25% of disease on untreated plants; 1: 26-59% of disease on untreated plants; 60-100% of disease on untreated plants. As to conditions: applied to soil (roots) and foliage one or two days before inoculation; for disease control grading, CERCOSPORA ARACHIDICOLA (PEANUT): Cercospora arachidicola on peanut; for disease control grading, P[…] (RICE): P[…] on rice; for disease control grading, PH[…] (TOMATO): Ph[…] on tomato; for disease control grading, PUCCINIA RECONDITA (WHEAT): Puccinia recondita on wheat; for disease control grading, VENTURIA INAEQUALIS (APPLE): Venturia inaequalis on apple; for disease control grading, […] (VINE): […] on vine.

As to `CO/C=C(/C(=O)OC)c1ccccc1COc1cccc(/C=N/c2ccccc2)c1` [179 (Table I)], in the test on Erysiphe graminis, the “disease control grading, ERYSIPHE GRAMINIS (BARLEY)” value (shortened to “disease control grading … (BARLEY)”) was 0 (60-100% of disease on untreated plants). Besides, in test [1], the “disease control grading, CERCOSPORA ARACHIDICOLA (PEANUT)” value (“disease control grading … (PEANUT)” below) is 0 (60-100% of disease on untreated plants); the “disease control grading, P[…] (RICE)” value was 2 (6-25% of disease on untreated plants); the “disease control grading, PH[…] (TOMATO)” value amounted to 4; the “disease control grading, PUCCINIA RECONDITA (WHEAT)” value (“disease control grading … (WHEAT)” below) was 3 (trace −5% of disease on untreated plants). In test [1], the “disease control grading, VENTURIA INAEQUALIS (APPLE)” value (from here on “disease control grading … (APPLE)”) is given as 0 (60-100% of disease on untreated plants) and the “disease control grading, […] (VINE)” value was 4.

In the case of `CO/C=C(/C(=O)OC)c1ccccc1COc1ccc(Cl)c(Cl)c1` [45 (Table I)], the “disease control grading … (BARLEY)” value in the test on Erysiphe graminis is given as 3 (trace −5% of disease on untreated plants). In test [1], the “disease control grading … (PEANUT)” value was 4; the “disease control grading, P[…] (RICE)” value is given as 4; the “disease control grading, PH[…] (TOMATO)” value amounted to 4; the “disease control grading … (WHEAT)” value came out at 4. For the same compound, in test [1], the “disease control grading … (APPLE)” value turned out to be 4 and the “disease control grading, […] (VINE)” value came to 4.

Consider `COC=C(C(=O)OC)c1ccccc1C(C)Sc1ccccc1` (stereo not drawn) [2 (Table II)], for which the “disease control grading … (BARLEY)” value in the test with Erysiphe graminis was found to be 4. In test [1], the “disease control grading … (PEANUT)” value is on record as 0 (60-100% of disease on untreated plants); the “disease control grading, P[…] (RICE)” value amounted to 4; the “disease control grading, PH[…] (TOMATO)” value was determined as 4; the “disease control grading … (WHEAT)” value was found to be 4. For the same compound, in test [1], the “disease control grading … (APPLE)” value is recorded as 4 and the “disease control grading, […] (VINE)” value is given as 4.

On to `CO/C=C(/C(=O)OC)c1ccccc1COc1cc(Cl)cc(OC)c1` [167 (Table I)], for which the “disease control grading … (BARLEY)” value in the test with Erysiphe graminis is reported as 4. Also, in test [1], the “disease control grading … (PEANUT)” value was 3 (trace −5% of disease on untreated plants); the “disease control grading, P[…] (RICE)” value was found to be 4; the “disease control grading, PH[…] (TOMATO)” value came to 4; the “disease control grading … (WHEAT)” value was determined as 4. In addition, in test [1], the “disease control grading … (APPLE)” value came out at 4 and the “disease control grading, […] (VINE)” value turned out to be 4.

Take `CO/C=C(/C(=O)OC)c1ccccc1COc1cccc(C=O)c1` [175 (Table I)]: in the test with Erysiphe graminis, the “disease control grading … (BARLEY)” value was 1 (26-59% of disease on untreated plants). For the same compound, in test [1], the “disease control grading … (PEANUT)” value is 1 (26-59% of disease on untreated plants); the “disease control grading, P[…] (RICE)” value is 0 (60-100% of disease on untreated plants); the “disease control grading, PH[…] (TOMATO)” value came out at 4; the “disease control grading … (WHEAT)” value was 3 (trace −5% of disease on untreated plants). Moreover, in test [1], the “disease control grading … (APPLE)” value was 4 and the “disease control grading, […] (VINE)” value was found to be 4.

For `CO/C=C(/C(=O)OC)c1ccccc1COc1cccc(OC)c1` [160 (Table I)], in the test on Erysiphe graminis, the “disease control grading … (BARLEY)” value stood at 4. For the same compound, in test [1], the “disease control grading … (PEANUT)” value is given as 3 (trace −5% of disease on untreated plants); the “disease control grading, P[…] (RICE)” value is listed as 3 (trace −5% of disease on untreated plants); the “disease control grading, PH[…] (TOMATO)” value turned out to be 4; the “disease control grading … (WHEAT)” value amounted to 4. Also, in test [1], the “disease control grading … (APPLE)” value came to 4 and the “disease control grading, […] (VINE)” value came out at 4.

For `CCOc1cc(OCc2ccccc2/C(=C\OC)C(=O)OC)ccc1OC` [170 (Table I)], in the test on Erysiphe graminis, the “disease control grading … (BARLEY)” value was 4. For the same compound, in test [1], the “disease control grading … (PEANUT)” value came to 4; the “disease control grading, P[…] (RICE)” value is 3 (trace −5% of disease on untreated plants); the “disease control grading, PH[…] (TOMATO)” value turned out to be 4; the “disease control grading … (WHEAT)” value is given as 0 (60-100% of disease on untreated plants). Further, in test [1], the “disease control grading … (APPLE)” value amounted to 4 and the “disease control grading, […] (VINE)” value amounted to 4.

Take `CO/C=C(/C(=O)OC)c1ccccc1COc1cccc(O)c1` [171 (Table I)]: the “disease control grading … (BARLEY)” value in the test on Erysiphe graminis is listed as 1 (26-59% of disease on untreated plants). Also, in test [1], the “disease control grading … (PEANUT)” value is 3 (trace −5% of disease on untreated plants); the “disease control grading, P[…] (RICE)” value is 0 (60-100% of disease on untreated plants); the “disease control grading, PH[…] (TOMATO)” value was 3 (trace −5% of disease on untreated plants); the “disease control grading … (WHEAT)” value is 3 (trace −5% of disease on untreated plants). In test [1], the “disease control grading … (APPLE)” value stood at 4 and the “disease control grading, […] (VINE)” value is 4.

For `CO/C=C(/C(=O)OC)c1ccccc1COc1cccc(Br)c1` [166 (Table I)], the “disease control grading … (BARLEY)” value in the test on Erysiphe graminis is reported as 4. Besides, in test [1], the “disease control grading … (PEANUT)” value was 4; the “disease control grading, P[…] (RICE)” value turned out to be 4; the “disease control grading, PH[…] (TOMATO)” value worked out at 4; the “disease control grading … (WHEAT)” value is listed as 4. For the same compound, in test [1], the “disease control grading … (APPLE)” value worked out at 4 and the “disease control grading, […] (VINE)” value was 4.

Take `CO/C=C(/C(=O)OC)c1ccccc1COc1ccc(Br)cc1` [159 (Table I)]: the “disease control grading … (BARLEY)” value with Erysiphe graminis was 3 (trace −5% of disease on untreated plants). In addition, in test [1], the “disease control grading … (PEANUT)” value is 4; the “disease control grading, P[…] (RICE)” value is 0 (60-100% of disease on untreated plants); the “disease control grading, PH[…] (TOMATO)” value is given as 3 (trace −5% of disease on untreated plants); the “disease control grading … (WHEAT)” value turned out to be 4. In test [1], the “disease control grading … (APPLE)” value is 4 and the “disease control grading, […] (VINE)” value is listed as 0 (60-100% of disease on untreated plants).

As to `CO/C=C(/C(=O)OC)c1ccccc1COc1cccc(Oc2cccc(C)c2)c1` [181 (Table I)], the “disease control grading … (BARLEY)” value with Erysiphe graminis is reported as 4. Further, in test [1], the “disease control grading … (PEANUT)” value is recorded as 4; the “disease control grading, P[…] (RICE)” value is 3 (trace −5% of disease on untreated plants); the “disease control grading, PH[…] (TOMATO)” value is 4; the “disease control grading … (WHEAT)” value is listed as 4. Further, in test [1], the “disease control grading … (APPLE)” value stood at 4 and the “disease control grading, […] (VINE)” value is recorded as 4.

Turning to `CO/C=C(/C(=O)OC)c1ccccc1COc1cccc(Cl)c1Cl` [163 (Table I)], the “disease control grading … (BARLEY)” value with Erysiphe graminis is given as 4. Also, in test [1], the “disease control grading … (PEANUT)” value stood at 4; the “disease control grading, P[…] (RICE)” value is 2 (6-25% of disease on untreated plants); the “disease control grading, PH[…] (TOMATO)” value worked out at 4; the “disease control grading … (WHEAT)” value was 4. Moreover, in test [1], the “disease control grading … (APPLE)” value is listed as 4 and the “disease control grading, […] (VINE)” value turned out to be 4.

The values above are taken from patent US6653258B1 (priority 1987, dated 2003).
